For assay [1], the target named is human orexin-2 receptor (hOX2R) (Homo sapiens (Human), UniProt O43614). Put plainly: FLIPR Ca2+ Flux Assay, CHO cells expressing human orexin-2 receptor. The note with it: agonist Ala-6,12 human orexin-A 70 pM. In kind it is cell-based. The protocol: Briefly, for intracellular calcium measurements, Chinese hamster ovary (CHO) cells expressing the orexin-1 receptor (e.g., rat or human) or the orexin-2 receptor (e.g., rat or human), are grown in Iscove's modified DMEM containing 2 mM L-glutamine, […], 1% hypoxanthine-thymidine supplement, 100 U/ml penicillin, 100 μg/ml streptomycin and 10% heat-inactivated fetal calf serum (FCS). The cells are seeded at approximately 20,000 cells per well into 384-well clear bottom sterile plates coated with poly-D-lysine. The seeded plates are incubated overnight at 37° C. and 5% CO2. Human ala-6,12 orexin-A can be used as the agonist and prepared as a 1 mM stock solution in 1% bovine serum albumin (BSA) and diluted in assay buffer (HBSS containing 20 mM HEPES, 0.1% BSA and 2.5 mM probenecid, pH7.4) for use in the assay at a final concentration of 70 pM. Test compounds are prepared as 10 mM stock solution in DMSO, then diluted in 384-well plates, first in DMSO, then in assay buffer. On the day of the assay, cells are washed 3 times with 100 μl assay buffer and then incubated for 60 minutes (37° C., 5% CO2) in 60 μl assay buffer containing 1 μM Fluo-4 AM ester, 0.02% pluronic acid, and 1% BSA. The dye loading solution is then aspirated and cells are washed 3 times with 100 μl assay buffer. 30 μl of that same buffer is left in each well. Within the Fluorescent Imaging Plate Reader (FLIPR, Molecular Devices), test compounds are added to the plate in a volume of 25 μl, incubated for 5 minutes, and then 25 μl of agonist is added. Fluorescence is measured for each well at 1 second intervals for 5 minutes, and the height of each fluorescence peak is compared to the height of the fluorescence peak induced by 70 pM of agonist ala-6,12 orexin-A with buffer in place of test compound. IC50 value for the test compound is determined to be the concentration of compound needed to inhibit 50% of the agonist response. Alternatively, compound potency can be assessed using a radioligand binding assay (described in Bergman et. al., Bioorg. Med. Chem. Lett. 2008, 18:1425-1430) in which the inhibition constant (Ki) is determined in membranes prepared from CHO cells expressing either the OX1 or OX2 receptor. The intrinsic orexin receptor antagonist activity of a compound of the present invention may be determined by these assays. […]
Chain of human orexin-2 receptor (hOX2R) (O43614 whole entry): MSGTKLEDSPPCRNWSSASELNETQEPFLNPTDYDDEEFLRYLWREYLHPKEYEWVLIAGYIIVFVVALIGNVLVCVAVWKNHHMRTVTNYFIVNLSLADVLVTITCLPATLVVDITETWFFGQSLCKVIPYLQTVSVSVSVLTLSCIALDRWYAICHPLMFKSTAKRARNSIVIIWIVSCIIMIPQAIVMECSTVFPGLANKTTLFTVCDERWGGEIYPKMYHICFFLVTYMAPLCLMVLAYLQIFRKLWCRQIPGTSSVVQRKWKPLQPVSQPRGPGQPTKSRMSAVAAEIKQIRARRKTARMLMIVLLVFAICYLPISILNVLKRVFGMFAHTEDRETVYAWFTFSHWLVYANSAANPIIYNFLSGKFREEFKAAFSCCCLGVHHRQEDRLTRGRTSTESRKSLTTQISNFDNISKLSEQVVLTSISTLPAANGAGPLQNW
In general terms: Calcium flux is commonly read through the fluorescence of an indicator in the cells.

Assay [2] concerns the target human orexin-1 receptor (hOX1R) (Homo sapiens (Human), UniProt O43613). In words: FLIPR Ca2+ Flux Assay, CHO cells expressing human orexin-1 receptor. In kind it is cell-based. The note with it: agonist Ala-6,12 human orexin-A 70 pM. An excerpt:
The utility of the compounds in accordance with the present invention as orexin receptor OX1R and/or OX2R antagonists may be readily determined without undue experimentation by methodology well known in the art, including the “FLIPR Ca^2+ Flux Assay” (Okumura et al., Biochem. Biophys. Res. Comm. 2001, 280:976-981). Briefly, for intracellular calcium measurements, Chinese hamster ovary (CHO) cells expressing the orexin-1 receptor (e.g., rat or human) or the orexin-2 receptor (e.g., rat or human), are grown in Iscove's modified DMEM containing 2 mM L-glutamine, […], 1% hypoxanthine-thymidine supplement, 100 U/ml penicillin, 100 μg/ml streptomycin and 10% heat-inactivated fetal calf serum (FCS). The cells are seeded at approximately 20,000 cells per well into 384-well clear bottom sterile plates coated with poly-D-lysine. The seeded plates are incubated overnight at 37° C. and 5% CO2. Human ala-6,12 orexin-A can be used as the agonist and prepared as a 1 mM stock solution in 1% bovine serum albumin (BSA) and diluted in assay buffer (HBSS containing 20 mM HEPES, 0.1% BSA and 2.5 mM probenecid, pH7.4) for use in the assay at a final concentration of 70 pM. Test compounds are prepared as 10 mM stock solution in DMSO, then diluted in 384-well plates, first in DMSO, then in assay buffer. On the day of the assay, cells are washed 3 times with 100 μl assay buffer and then incubated for 60 minutes (37° C., 5% CO2) in 60 μl assay buffer containing 1 μM Fluo-4 AM ester, 0.02% pluronic acid, and 1% BSA. The dye loading solution is then aspirated and cells are washed 3 times with 100 μl assay buffer. 30 μl of that same buffer is left in each well. Within the Fluorescent Imaging Plate Reader (FLIPR, Molecular Devices), test compounds are added to the plate in a volume of 25 μl, incubated for 5 minutes, and then 25 μl of agonist is added. Fluorescence is measured for each well at 1 second intervals for 5 minutes, and the height of each fluorescence peak is compared to the height of the fluorescence peak induced by 70 pM of agonist ala-6,12 orexin-A with buffer in place of test compound. IC50 value for the test compound is determined to be the concentration of compound needed to inhibit 50% of the agonist response. Alternatively, compound potency can be assessed using a radioligand binding assay (described in Bergman et. al., Bioorg. Med. Chem. Lett. 2008, 18:1425-1430) in which the inhibition constant (Ki) is determined in membranes prepared from CHO cells expressing either the OX1 or OX2 receptor. The intrinsic orexin receptor antagonist activity of a compound of the present invention may be determined by these assays.

A value given as a limit tells only on which side of the number the result lay.

The text below walks through data of patent US9695163B2, “Thiazole orexin receptor antagonists” (MERCK SHARP & DOHME CORP., priority 2013, dated 2017).

Chain of human orexin-1 receptor (hOX1R) (O43613 whole entry): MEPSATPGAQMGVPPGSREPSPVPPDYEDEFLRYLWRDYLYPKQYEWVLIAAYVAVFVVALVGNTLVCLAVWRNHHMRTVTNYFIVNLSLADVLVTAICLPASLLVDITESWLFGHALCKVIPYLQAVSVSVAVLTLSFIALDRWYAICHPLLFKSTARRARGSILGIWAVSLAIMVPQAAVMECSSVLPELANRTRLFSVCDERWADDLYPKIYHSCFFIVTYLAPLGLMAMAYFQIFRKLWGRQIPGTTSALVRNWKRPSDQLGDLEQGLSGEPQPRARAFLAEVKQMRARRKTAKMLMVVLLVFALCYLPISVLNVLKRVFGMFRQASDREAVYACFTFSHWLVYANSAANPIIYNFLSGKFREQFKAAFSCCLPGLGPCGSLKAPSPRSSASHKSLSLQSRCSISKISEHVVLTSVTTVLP

For the compound `Cc1sc([C@@H]2CC[C@@H](C)N(C(=O)c3ccsc3-n3nccn3)C2)nc1C(C)(C)O` [Example 20, (2-(2H-1,2,3-triazol-2-yl)thiophen-3-yl)((2R,5R)-5-(4-(2-hydroxypropan-2-yl)-5-methylthiazol-2-yl)-2-methylpiperidin-1-yl)methanone], the IC50 in assay [1] amounted to 12 nM; in assay [2] it was 970 nM.
The matching figures for `Cc1sc([C@@H]2CC[C@@H](C)N(C(=O)c3cscc3-n3nccn3)C2)nc1C(C)(C)O` [Example 21, (4-(2H-1,2,3-triazol-2-yl)thiophen-3-yl)((2R,5R)-5-(4-(2-hydroxypropan-2-yl)-5-methylthiazol-2-yl)-2-methylpiperidin-1-yl)methanone]: 30 nM and 2800 nM.
The matching figures for `Cc1sc([C@@H]2CC[C@@H](C)N(C(=O)c3ccc(F)cc3-n3nccn3)C2)nc1C(C)(C)O` [Example 22, (4-fluoro-2-(2H-1,2,3-triazol-2-yl)phenyl)((2R,5R)-5-(4-(2-hydroxypropan-2-yl)-5-methylthiazol-2-yl)-2-methylpiperidin-1-yl)methanone]: 20 nM and 930 nM.
The matching figures for `Cc1sc([C@@H]2CC[C@@H](C)N(C(=O)c3ccccc3-c3ncccn3)C2)nc1C(C)(C)O` [Example 23, ((2R,5R)-5-(4-(2-Hydroxypropan-2-yl)-5-methylthiazol-2-yl)-2-methylpiperidin-1-yl)(2-(pyrimidin-2-yl)phenyl)methanone]: 27 nM and 600 nM.
Consider `Cc1sc([C@@H]2CC[C@@H](C)N(C(=O)c3ccccc3-n3ncnn3)C2)nc1C(C)(C)O` [Example 24, (2-(2H-Tetrazol-2-yl)phenyl)((2R,5R)-5-(4-(2-hydroxypropan-2-yl)-5-methylthiazol-2-yl)-2-methylpiperidin-1-yl)methanone], for which the IC50 in assay [1] is 19 nM; in assay [2], 2650 nM.
For `Cc1sc([C@@H]2CC[C@@H](C)N(C(=O)c3ccccc3C3(C#N)CC3)C2)nc1C(C)(C)O` [Example 25, 1-(2-((2R,5R)-5-(4-(2-Hydroxypropan-2-yl)-5-methylthiazol-2-yl)-2-methylpiperidine-1-carbonyl)phenyl)cyclopropanecarbonitrile] the same measures were 12 nM and 240 nM.
In the case of `Cc1sc([C@@H]2CC[C@@H](C)N(C(=O)c3ccccc3CS(C)(=O)=O)C2)nc1C(C)(C)O` [Example 26, ((2R,5R)-5-(4-(2-Hydroxypropan-2-yl)-5-methylthiazol-2-yl)-2-methylpiperidin-1-yl)(2-((methylsulfonyl)methyl)phenyl)methanone], the figures for the IC50 in assay [1] and in assay [2] were 32 nM and more than 10000 nM, respectively.
For `Cc1sc([C@@H]2CC[C@@H](C)N(C(=O)c3cscc3-c3ncccn3)C2)nc1C(C)(C)O` [Example 28, ((2R,5R)-5-(4-(2-Hydroxypropan-2-yl)-5-methylthiazol-2-yl)-2-methylpiperidin-1-yl)(4-(pyrimidin-2-yl)thiophen-3-yl)methanone] the same measures were 29 nM and 900 nM.
For `C[C@@H]1CC[C@@H](c2csc(C(C)(C)O)n2)CN1C(=O)c1ccccc1C1(C#N)CC1` [Example 30, 1-(2-((2R,5R)-5-(2-(2-hydroxypropan-2-yl)thiazol-4-yl)-2-methylpiperidine-1-carbonyl)phenyl)cyclopropanecarbonitrile] the same measures were 13 nM and 1200 nM.
The matching figures for `C[C@@H]1CC[C@@H](c2csc(C(C)(C)O)n2)CN1C(=O)c1ccsc1-c1ncccn1` [Example 31, ((2R,5R)-5-(2-(2-hydroxypropan-2-yl)thiazol-4-yl)-2-methylpiperidin-1-yl)(2-(pyrimidin-2-yl)thiophen-3-yl)methanone]: 90 nM and more than 10000 nM.
Consider `C[C@@H]1CC[C@@H](c2csc(C(C)(C)O)n2)CN1C(=O)c1cscc1-c1ncccn1` [Example 32, ((2R,5R)-5-(2-(2-hydroxypropan-2-yl)thiazol-4-yl)-2-methylpiperidin-1-yl)(4-(pyrimidin-2-yl)thiophen-3-yl)methanone], for which the IC50 in assay [1] is 130 nM; in assay [2], more than 10000 nM.
For the compound `C[C@@H]1CC[C@@H](c2csc(C(C)(C)O)n2)CN1C(=O)c1ccccc1-c1ncccn1` [Example 33, ((2R,5R)-5-(2-(2-hydroxypropan-2-yl)thiazol-4-yl)-2-methylpiperidin-1-yl)(2-(pyrimidin-2-yl)phenyl)methanone], the values for the IC50 in assay [1] and in assay [2] were 102 nM and more than 10000 nM, respectively.
For `C[C@@H]1CC[C@@H](c2csc(C(C)(C)O)n2)CN1C(=O)c1ccccc1CS(C)(=O)=O` [Example 34, ((2R,5R)-5-(2-(2-hydroxypropan-2-yl)thiazol-4-yl)-2-methylpiperidin-1-yl)(2-((methylsulfonyl)methyl)phenyl)methanone] the same measures were 40 nM and more than 10000 nM.
For `C[C@@H]1CC[C@@H](c2csc(C(C)(C)O)n2)CN1C(=O)c1cscc1-n1nccn1` [Example 35, (4-(2H-1,2,3-triazol-2-yl)thiophen-3-yl)((2R,5R)-5-(2-(2-hydroxypropan-2-yl)thiazol-4-yl)-2-methylpiperidin-1-yl)methanone], the IC50 in assay [1] is 14 nM; in assay [2] it was more than 10000 nM.
For `C[C@@H]1CC[C@@H](c2csc(C(C)(C)O)n2)CN1C(=O)c1ccccc1-n1nccn1` [Example 36, (2-(2H-1,2,3-triazol-2-yl)phenyl)((2R,5R)-5-(2-(2-hydroxypropan-2-yl)thiazol-4-yl)-2-methylpiperidin-1-yl)methanone] the same measures were 20 nM and 2300 nM.
The matching figures for `C[C@@H]1CC[C@@H](c2csc(C(C)(C)O)n2)CN1C(=O)c1ccsc1-n1nccn1` [Example 37, (2-(2H-1,2,3-Triazol-2-yl)thiophen-3-yl)((2R,5R)-5-(2-(2-hydroxypropan-2-yl)thiazol-4-yl)-2-methylpiperidin-1-yl)methanone]: 16 nM and 7200 nM.
For `C[C@@H]1CC[C@@H](c2csc(C(C)(C)O)n2)CN1C(=O)c1ccc(F)cc1-n1nccn1` [Example 38, (4-Fluoro-2-(2H-1,2,3-triazol-2-yl)phenyl)((2R,5R)-5-(2-(2-hydroxypropan-2-yl)thiazol-4-yl)-2-methylpiperidin-1-yl)methanone] the same measures were 14 nM and 2050 nM.
Regarding “((2R,5R)-5-(4-(2-Hydroxypropan-2-yl)-5- methylthiazol-2-yl)-2-methylpiperidin-1- yl)(2-(pyrimidin-2-yl)thiophen-3- yl)methanone [Example 27]”, the IC50 in assay [1] amounted to 87 nM; in assay [2] it was 700 nM.

A word on the IC50: it is the point on the concentration scale where inhibition reaches its midpoint. A higher IC50 goes with weaker potency in that assay.
